Like-named read-outs stand apart in the source and are kept apart here. Where only a bound is given, the exact number is not on record here.

The test system of data set [1] is human embryonic lung (HEL) fibroblast cells. The following applies: mock-infected HEL cells; microscopically visible alterations in cell morphology.
In the next data set the test system is HCoV-229E. Nature of the data set: Cytopathic effect (CPE) reduction assay with HCoV-229E in HEL cells. The data set is classed as cell-based, human coronavirus 229E. The following applies: for EC50: Human coronavirus 229E, 120 h, HCoV-229E-infected HEL cells, five days at 35 °C; for Selectivity Index Microscopy: ratio of MCC to EC50-microscopy.
A short description of the next data set: in vitro. To be noted: human.
Where [2] appears, read: protection against virus-induced CPE by MTS cell viability assay, read-out: Antiviral EC50 MTS.
[3] abbreviates: protection against virus-induced CPE by microscopic scoring, read-out: Antiviral EC50 Microscopy.
The mark [4] stands for this setting: only values of 10 or higher shown.

With `COC(=O)C[C@H](NC(=O)OC(C)(C)C)C(=O)N(Cc1ccc(F)cc1)C1(C(=O)NCc2ccccc2)CCN(Cc2ccccc2)CC1` [Compound 2], the “Cytotoxicity MCC (minimal cytotoxic concentration)” value (from here on “Cytotoxicity MCC”) in data set [1] came out at 100 µM. Further, the EC50 in the data set with HCoV-229E (setting [2]) came out at 7.4 ± 2.5 µM; in the data set with HCoV-229E (setting [3]), 7.8 ± 2.7 µM. Moreover, the “Selectivity Index MTS” value in the data set on HCoV-229E (ratio of CC50 to EC50-MTS, only values of 10 or higher shown) worked out at 6. In the data set on HCoV-229E (setting [4]), the “Selectivity Index Microscopy” value was 13. In the data set “in vitro”, this molecule had a CC50 of 44 ± 8 µM.
For `COC(=O)C[C@H](NC(=O)OC(C)(C)C)C(=O)N(Cc1ccc(F)cc1)C(C)(C)C(=O)NCc1ccccc1` [Compound 3], in data set [1], the “Cytotoxicity MCC” value is reported as above 100 µM. Besides, the EC50 in the data set on HCoV-229E (setting [2]) and with HCoV-229E (setting [3]) was above 100 µM each time. Besides, the CC50 in “in vitro” is above 100 µM.
For the molecule `COC(=O)C[C@H](NC(=O)OC(C)(C)C)C(=O)N(Cc1ccc(F)cc1)C1(C(=O)NCc2ccccc2)CCNCC1` [Compound 4], in data set [1], the “Cytotoxicity MCC” value is 100 µM. The EC50 is 78 ± 14 µM in the data set on HCoV-229E (setting [2]) and 50 ± 18 µM in the data set on HCoV-229E (setting [3]). The molecule also came in with a CC50 in the data set “in vitro” of 66 ± 7 µM.
With `COC(=O)C[C@H](NC(=O)OC(C)(C)C)C(=O)N(Cc1ccc(F)cc1)C1(C(=O)NCc2ccccc2)CCN(C)CC1` [Compound 5], the “Cytotoxicity MCC” value in data set [1] is given as above 100 µM. Moreover, the EC50 amounted to 22 ± 7 µM with HCoV-229E (setting [2]) and 22 ± 9 µM in the data set with HCoV-229E (setting [3]). Further, in “in vitro”, the CC50 was 92 ± 4 µM.
On to `COC(=O)C[C@H](NC(=O)OC(C)(C)C)C(=O)N(Cc1ccc(F)cc1)C1(C(=O)NCc2ccccc2)CCN(C2CCCCC2)CC1` [Compound 6], for which the “Cytotoxicity MCC” value in data set [1] is listed as 100 µM. Besides, the results for the EC50 in the data set on HCoV-229E (setting [2]) and in the data set on HCoV-229E (setting [3]) were 14 ± 1 µM and 22 ± 9 µM, respectively. The CC50 in “in vitro” worked out at 85 ± 9 µM.
On to `COC(=O)C[C@H](NC(=O)OC(C)(C)C)C(=O)N(Cc1ccc(F)cc1)C1(C(=O)NCc2ccccc2)CCN(c2ccccc2)CC1` [Compound 7], for which the “Cytotoxicity MCC” value in data set [1] is given as above 100 µM. Moreover, the EC50 is above 100 µM in the data set on HCoV-229E (setting [2]) and 43 ± 3 µM in the data set on HCoV-229E (setting [3]). The molecule also registered a CC50 in “in vitro” above 100 µM.
Turning to `COC(=O)C[C@H](NC(=O)OC(C)(C)C)C(=O)N(Cc1ccc(F)cc1)C1(C(=O)NCc2ccccc2)CC[N+](C)(Cc2ccccc2)CC1` (stereo partly drawn) [Compound 8], the “Cytotoxicity MCC” value in data set [1] was above 100 µM. Also, the EC50 with HCoV-229E (setting [2]) and in the data set on HCoV-229E (setting [3]) was above 100 µM throughout. Besides, the CC50 in the data set “in vitro” was above 100 µM.
For `COC(=O)C[C@H](NC(=O)OC(C)(C)C)C(=O)N(Cc1ccc(F)cc1)C1(C(=O)NCc2ccccc2)CCN(Cc2cccc(F)c2)CC1` [Compound 9], the “Cytotoxicity MCC” value in data set [1] is listed as above 100 µM. Further, the EC50 with HCoV-229E (setting [2]) and with HCoV-229E (setting [3]) was above 100 µM throughout. This molecule registered a CC50 in the data set “in vitro” above 100 µM.
As to `COC(=O)C[C@H](NC(=O)OC(C)(C)C)C(=O)N(Cc1ccc(F)cc1)C1(C(=O)NCc2ccccc2)CCN(Cc2cc(F)cc(F)c2)CC1` [Compound 10], the “Cytotoxicity MCC” value in data set [1] worked out at 70 µM. The EC50 is above 100 µM in the data set with HCoV-229E (setting [2]) and 15 ± 1 µM with HCoV-229E (setting [3]). In addition, in the data set “in vitro”, the CC50 stood at 10 ± 2 µM.
In the case of `COC(=O)C[C@H](NC(=O)OC(C)(C)C)C(=O)N(Cc1ccc(F)cc1)C1(C(=O)NCc2ccccc2)CCN(CCc2ccccc2)CC1` [Compound 11], in data set [1], the “Cytotoxicity MCC” value came out at 100 µM. Moreover, the EC50 was determined as 4.4 ± 0.8 µM in the data set on HCoV-229E (setting [2]) and 3.2 ± 0.1 µM in the data set on HCoV-229E (setting [3]). Besides, the “Selectivity Index Microscopy” value in the data set on HCoV-229E (setting [4]) was 31. The molecule also came in with a CC50 in “in vitro” of 38 ± 2 µM.
In the case of `COC(=O)C[C@H](NC(=O)OC(C)(C)C)C(=O)N(Cc1ccc(F)cc1)C1(C(=O)NC(C)(C)C)CCN(Cc2ccccc2)CC1` [Compound 12], in data set [1], the “Cytotoxicity MCC” value is listed as at least 100 µM. Further, the EC50 in the data set with HCoV-229E (setting [2]) and in the data set with HCoV-229E (setting [3]) was 11 µM each time. In addition, the CC50 in “in vitro” turned out to be 77 µM.
For the molecule `COC(=O)C[C@H](NC(=O)OC(C)(C)C)C(=O)N(Cc1ccc(F)cc1)C1(C(=O)NC2CCCCC2)CCN(Cc2ccccc2)CC1` [Compound 13], the “Cytotoxicity MCC” value in data set [1] is listed as above 100 µM. Moreover, the EC50 in the data set with HCoV-229E (setting [2]) and in the data set with HCoV-229E (setting [3]) was above 100 µM in each case. The molecule further registered a CC50 in “in vitro” above 100 µM.

Values taken from PMC9416004, “A Versatile Class of 1,4,4-Trisubstituted Piperidines Block Coronavirus Replication In Vitro” (Pharmaceuticals, 2022).
